Laboratory results taken from ChEMBL document CHEMBL3751833, “Discovery of potent aryl-substituted 3-[(3-methylpyridine-2-carbonyl) amino]-2,4-dimethyl-benzoic acid EP4 antagonists with improved pharmacokinetic profile” (Bioorg Med Chem Lett, 2016).
Values after ≈ are worked out from the molar mass of the structure shown. Active and inactive are the calls of the source. The rule behind the calls is not given here.

Tests used:
[1] = Oral bioavailability in rat; format: ADME, organism-based; details: in vivo
[2] = biological target: T1, Prostaglandin E2 receptor EP4 subtype (Homo sapiens, UniProt P35408); assay: Antagonist activity at EP4 receptor in LPS-stimulated human whole blood assessed as inhibition of PGE2-induced TNF-alpha release pretreated for 30 mins followed by addition of PGE2 measured after 20 to 24 hrs by immunoassay; format: tissue-based
T1 sequence (P35408 whole entry): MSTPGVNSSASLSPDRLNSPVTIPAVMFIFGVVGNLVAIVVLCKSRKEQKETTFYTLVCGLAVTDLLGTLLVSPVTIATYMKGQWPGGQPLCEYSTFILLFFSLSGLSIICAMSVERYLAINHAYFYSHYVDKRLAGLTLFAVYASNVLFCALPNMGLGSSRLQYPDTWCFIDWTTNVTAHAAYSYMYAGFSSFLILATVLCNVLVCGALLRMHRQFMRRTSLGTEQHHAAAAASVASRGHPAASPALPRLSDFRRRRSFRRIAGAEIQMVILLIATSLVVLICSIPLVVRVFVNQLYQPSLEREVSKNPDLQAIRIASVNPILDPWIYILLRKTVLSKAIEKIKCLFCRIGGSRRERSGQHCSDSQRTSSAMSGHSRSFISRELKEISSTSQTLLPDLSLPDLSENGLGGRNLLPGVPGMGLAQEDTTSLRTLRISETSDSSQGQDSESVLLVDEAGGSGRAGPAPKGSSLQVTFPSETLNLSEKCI

[3] = Clearance in rat at 1 mg/kg, iv; format: ADME, organism-based; details: in vivo
[4] = Aqueous solubility of compound at pH 6 after 20 hrs by HPLC analysis; format: physicochemical
[5] = (§1) Oral bioavailability in rat at 5 mg/kg; format: ADME, organism-based; details: in vivo
[6] = (§2) AUC in rat at 5 mg/kg, po; format: ADME, organism-based; details: in vivo
Rattus norvegicus [7] = assay: Antiinflammatory activity in adjuvant-induced arthritis rat model assessed as inhibition of paw swelling at 10 mg/kg administered 15 days post adjuvant challenge; format: functional, organism-based
Rattus norvegicus [8] = assay: Analgesic activity in […]-induced rat joint pain model assessed as inhibition of differential weight bearing at 5 mg/kg, po measured 30 mins post dose; format: functional, organism-based
[9] = biological target: T1, Prostaglandin E2 receptor EP4 subtype; assay: Antagonist activity at human EP4 receptor expressed in HEK293 cells assessed as inhibition of PGE2-stimulated cAMP production after 1 hr by HTRF assay; format: functional, cell-based
[10] = biological target: Prostaglandin E2 receptor EP1 subtype (Homo sapiens, UniProt P34995); assay: Binding affinity to human EP1 receptor
Prostaglandin E2 receptor EP1 subtype, sequence (P34995 whole entry): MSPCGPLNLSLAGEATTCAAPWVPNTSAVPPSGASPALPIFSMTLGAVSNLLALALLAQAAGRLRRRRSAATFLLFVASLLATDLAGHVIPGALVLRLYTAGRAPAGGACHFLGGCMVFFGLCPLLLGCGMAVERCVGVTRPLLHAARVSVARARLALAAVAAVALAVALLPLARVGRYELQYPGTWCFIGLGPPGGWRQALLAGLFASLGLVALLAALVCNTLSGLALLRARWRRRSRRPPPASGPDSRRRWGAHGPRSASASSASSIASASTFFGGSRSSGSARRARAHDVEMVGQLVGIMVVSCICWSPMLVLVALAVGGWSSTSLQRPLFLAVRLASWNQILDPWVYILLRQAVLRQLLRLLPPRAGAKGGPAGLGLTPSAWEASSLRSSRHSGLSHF

[11] = biological target: Beta-2 adrenergic receptor (Homo sapiens) (UniProt P07550); assay: Inhibition of human beta-2 adrenergic receptor at 10 uM
Cytochrome P450 2B6 = Cytochrome P450 2B6 (Homo sapiens, UniProt P20813); assay: Inhibition of CYP2B6 (unknown origin); format: ADME
[12] = biological target: L-type calcium channel, diltiazem binding site (Homo sapiens, UniProt O60840+Q01668+Q13698+Q13936); assay: Inhibition of L-type calcium channel diltiazem binding site (unknown origin) at 10 uM; format: protein assay
Rattus norvegicus [13] = species: Rattus norvegicus; assay: Inhibition of rat chloride channel at 10 uM
Cytochrome P450 1A2 = Cytochrome P450 1A2 (Homo sapiens, UniProt P05177); assay: Inhibition of CYP1A2 (unknown origin); format: ADME
Cytochrome P450 1A2, sequence (P05177 whole entry): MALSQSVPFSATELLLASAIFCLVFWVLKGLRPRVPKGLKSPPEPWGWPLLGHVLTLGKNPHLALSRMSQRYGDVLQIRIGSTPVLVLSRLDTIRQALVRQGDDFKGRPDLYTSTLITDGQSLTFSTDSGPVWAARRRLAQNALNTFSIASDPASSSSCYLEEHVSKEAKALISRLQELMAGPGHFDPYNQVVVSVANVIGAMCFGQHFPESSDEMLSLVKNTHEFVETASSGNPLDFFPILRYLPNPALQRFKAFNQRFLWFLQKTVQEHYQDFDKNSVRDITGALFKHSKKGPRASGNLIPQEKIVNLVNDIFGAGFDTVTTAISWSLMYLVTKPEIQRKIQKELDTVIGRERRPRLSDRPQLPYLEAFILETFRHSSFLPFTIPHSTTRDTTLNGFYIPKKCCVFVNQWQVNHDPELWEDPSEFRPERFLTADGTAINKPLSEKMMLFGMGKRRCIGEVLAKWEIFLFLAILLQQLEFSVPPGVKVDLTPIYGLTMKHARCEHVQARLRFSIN

[14] = biological target: L-type calcium channel, verapamil binding site (Homo sapiens, UniProt O60840+Q01668+Q13698+Q13936); assay: Inhibition of L-type calcium channel verapamil binding site (unknown origin) at 10 uM; format: protein assay
[15] = Cmax in dog at 5 mg/kg, po; format: ADME, organism-based, Canis lupus familiaris; design: dose 5 mg/kg, route oral; details: in vivo
Rattus norvegicus [16] = assay: Antiinflammatory activity in adjuvant-induced arthritis rat model assessed as inhibition of paw swelling at 10 and 30 mg/kg administered 15 days post adjuvant challenge; format: functional, organism-based
[17] = biological target: Muscarinic acetylcholine receptor M2 (Homo sapiens) (UniProt P08172); assay: Inhibition of human muscarinic M2 receptor at 10 uM
Cytochrome P450 3A4 = Cytochrome P450 3A4 (Homo sapiens, UniProt P08684); assay: Inhibition of CYP3A4 (unknown origin); format: ADME
Cytochrome P450 2C19 = Cytochrome P450 2C19 (Homo sapiens, UniProt P33261); assay: Inhibition of CYP2C19 (unknown origin); format: ADME
Cytochrome P450 2C19, sequence (P33261 whole entry): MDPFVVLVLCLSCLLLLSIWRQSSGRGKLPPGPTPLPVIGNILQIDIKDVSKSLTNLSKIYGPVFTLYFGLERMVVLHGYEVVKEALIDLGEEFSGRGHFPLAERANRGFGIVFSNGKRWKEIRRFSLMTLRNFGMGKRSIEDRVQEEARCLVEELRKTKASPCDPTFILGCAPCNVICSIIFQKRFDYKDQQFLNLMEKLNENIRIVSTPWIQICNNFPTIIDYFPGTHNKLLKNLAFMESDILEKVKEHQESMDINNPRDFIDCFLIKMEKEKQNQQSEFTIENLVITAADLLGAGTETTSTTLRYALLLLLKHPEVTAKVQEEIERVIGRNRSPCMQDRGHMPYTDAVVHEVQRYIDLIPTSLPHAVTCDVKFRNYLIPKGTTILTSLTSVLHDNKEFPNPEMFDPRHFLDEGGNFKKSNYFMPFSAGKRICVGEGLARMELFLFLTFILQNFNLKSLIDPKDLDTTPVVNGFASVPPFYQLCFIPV

[18] = biological target: L-type calcium channel, dihydropyridine binding site (Homo sapiens, UniProt O60840+Q01668+Q13698+Q13936); assay: Inhibition of L-type calcium channel dihydropyridine binding site (unknown origin) at 10 uM; format: protein assay
[19] = biological target: Adrenergic receptor alpha-1 (Rattus norvegicus) (UniProt P15823+P23944+P43140); assay: Inhibition of rat alpha-1 adrenergic receptor at 10 uM
Cytochrome P450 2D6 = Cytochrome P450 2D6 (Homo sapiens, UniProt P10635); assay: Inhibition of CYP2D6 (unknown origin); format: ADME
[20] = AUC in dog at 5 mg/kg, po; format: ADME, organism-based, Canis lupus familiaris; details: in vivo
[21] = biological target: Beta-1 adrenergic receptor (Homo sapiens) (UniProt P08588); assay: Inhibition of human beta-1 adrenergic receptor at 10 uM
[22] = Clearance in dog at 1 mg/kg, iv; format: ADME, organism-based, Canis lupus familiaris; details: in vivo
[23] = biological target: D(2) dopamine receptor (Homo sapiens) (UniProt P14416); assay: Inhibition of human dopamine D2s receptor at 10 uM
D(2) dopamine receptor (Homo sapiens), sequence (P14416 whole entry): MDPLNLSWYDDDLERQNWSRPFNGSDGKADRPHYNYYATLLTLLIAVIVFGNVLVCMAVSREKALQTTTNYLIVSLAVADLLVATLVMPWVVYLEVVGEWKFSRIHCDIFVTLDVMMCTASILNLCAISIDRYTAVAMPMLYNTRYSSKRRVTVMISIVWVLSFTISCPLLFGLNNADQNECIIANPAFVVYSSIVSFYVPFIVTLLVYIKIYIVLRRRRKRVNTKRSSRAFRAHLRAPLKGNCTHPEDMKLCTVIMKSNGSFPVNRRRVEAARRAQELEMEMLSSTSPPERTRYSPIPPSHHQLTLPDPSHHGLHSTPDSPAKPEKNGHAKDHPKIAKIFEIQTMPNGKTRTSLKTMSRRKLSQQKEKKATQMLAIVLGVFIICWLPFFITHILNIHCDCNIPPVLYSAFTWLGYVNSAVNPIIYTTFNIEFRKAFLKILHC

[24] = Cmax in rat at 5 mg/kg, po; format: ADME, organism-based; design: dose 5 mg/kg, route oral; details: in vivo
[25] = biological target: D(1A) dopamine receptor (Homo sapiens) (UniProt P21728); assay: Inhibition of human dopamine D1 receptor at 10 uM
D(1A) dopamine receptor (Homo sapiens), sequence (P21728 whole entry): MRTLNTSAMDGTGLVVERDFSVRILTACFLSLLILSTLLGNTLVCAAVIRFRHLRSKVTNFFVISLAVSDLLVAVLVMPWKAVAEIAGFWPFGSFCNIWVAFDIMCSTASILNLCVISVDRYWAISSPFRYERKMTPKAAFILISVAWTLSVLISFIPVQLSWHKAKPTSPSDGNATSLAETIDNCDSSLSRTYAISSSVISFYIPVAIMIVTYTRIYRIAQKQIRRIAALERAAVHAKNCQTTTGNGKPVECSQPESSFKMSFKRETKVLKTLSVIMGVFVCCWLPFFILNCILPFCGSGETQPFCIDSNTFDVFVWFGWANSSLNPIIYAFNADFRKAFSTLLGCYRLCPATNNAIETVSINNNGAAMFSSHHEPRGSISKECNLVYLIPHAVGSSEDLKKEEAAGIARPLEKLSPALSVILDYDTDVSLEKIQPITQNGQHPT

[26] = biological target: Acetylcholinesterase (Homo sapiens) (UniProt P22303); assay: Inhibition of human acetylcholinesterase at 10 uM
Cytochrome P450 2C9 = Cytochrome P450 2C9 (Homo sapiens, UniProt P11712); assay: Inhibition of CYP2C9 (unknown origin); format: ADME
[27] = biological target: Prostaglandin E2 receptor EP3 subtype (Homo sapiens, UniProt P43115); assay: Binding affinity to human EP3 receptor
Prostaglandin E2 receptor EP3 subtype, sequence (P43115 whole entry): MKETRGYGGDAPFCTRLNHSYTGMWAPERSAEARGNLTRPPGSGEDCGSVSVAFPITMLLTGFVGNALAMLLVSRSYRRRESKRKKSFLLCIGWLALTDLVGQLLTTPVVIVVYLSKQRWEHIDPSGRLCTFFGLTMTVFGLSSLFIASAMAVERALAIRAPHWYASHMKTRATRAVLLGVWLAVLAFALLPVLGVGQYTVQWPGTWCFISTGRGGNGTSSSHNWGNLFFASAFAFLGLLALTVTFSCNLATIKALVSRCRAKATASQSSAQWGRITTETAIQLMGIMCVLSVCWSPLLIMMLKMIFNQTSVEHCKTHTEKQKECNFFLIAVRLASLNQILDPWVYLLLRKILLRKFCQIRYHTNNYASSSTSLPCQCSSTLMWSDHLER

[28] = biological target: Voltage-gated inwardly rectifying potassium channel KCNH2 (Homo sapiens, UniProt Q12809); assay: Displacement of [3H]astemizole from human ERG upto 100 uM
[29] = biological target: Adenosine receptor A3 (Homo sapiens) (UniProt P0DMS8); assay: Inhibition of human adenosine A3 receptor at 10 uM
Adenosine receptor A3 (Homo sapiens), sequence (P0DMS8 whole entry): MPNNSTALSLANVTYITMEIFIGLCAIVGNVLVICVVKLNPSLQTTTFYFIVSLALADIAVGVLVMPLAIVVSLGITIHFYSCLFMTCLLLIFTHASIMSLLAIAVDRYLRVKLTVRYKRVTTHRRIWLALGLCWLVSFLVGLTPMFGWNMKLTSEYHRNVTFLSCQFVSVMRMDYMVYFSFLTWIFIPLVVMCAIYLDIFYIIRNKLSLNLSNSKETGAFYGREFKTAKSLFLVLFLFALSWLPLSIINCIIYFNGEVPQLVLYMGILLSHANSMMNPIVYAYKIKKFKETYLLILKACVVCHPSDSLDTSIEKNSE

[30] = Volume of distribution at steady state in rat at 1 mg/kg, iv and 5 mg/kg, po; format: ADME, organism-based; details: in vivo, read-out: Vdss
[31] = biological target: Adrenergic receptor alpha-2 (Rattus norvegicus) (UniProt P22086+P19328+P22909); assay: Inhibition of rat alpha-2 adrenergic receptor at 10 uM
[32] = biological target: Prostaglandin E2 receptor EP2 subtype (Homo sapiens, UniProt P43116); assay: Binding affinity to human EP2 receptor
Prostaglandin E2 receptor EP2 subtype, sequence (P43116 whole entry): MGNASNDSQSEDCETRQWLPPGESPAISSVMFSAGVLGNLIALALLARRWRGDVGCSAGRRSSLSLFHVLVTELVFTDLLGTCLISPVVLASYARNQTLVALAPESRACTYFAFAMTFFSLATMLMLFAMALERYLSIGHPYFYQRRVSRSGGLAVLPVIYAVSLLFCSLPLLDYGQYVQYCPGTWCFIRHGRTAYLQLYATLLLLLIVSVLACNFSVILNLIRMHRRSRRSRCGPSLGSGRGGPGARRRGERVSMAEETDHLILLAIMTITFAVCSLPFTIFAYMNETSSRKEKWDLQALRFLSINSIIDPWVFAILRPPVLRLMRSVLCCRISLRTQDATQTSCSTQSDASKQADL

[33] = biological target: Sodium-dependent noradrenaline transporter (Homo sapiens) (UniProt P23975); assay: Inhibition of human Noradrenaline transporter at 10 uM
[34] = biological target: Histamine H1 receptor (Homo sapiens) (UniProt P35367); assay: Inhibition of human histamine H1 receptor at 10 uM
[35] = Oral bioavailability in dog at 5 mg/kg; format: ADME, organism-based, Canis lupus familiaris; details: in vivo
[36] = Volume of distribution at steady state in dog at 1 mg/kg, iv and 5 mg/kg, po; format: ADME, organism-based, Canis lupus familiaris; details: in vivo, read-out: Vdss
[37] = Half life in dog at 5 mg/kg, po; format: ADME, organism-based, Canis lupus familiaris; details: in vivo
Cytochrome P450 2C8 = Cytochrome P450 2C8 (Homo sapiens, UniProt P10632); assay: Inhibition of CYP2C8 (unknown origin); format: ADME
Cytochrome P450 2C8, sequence (P10632 whole entry): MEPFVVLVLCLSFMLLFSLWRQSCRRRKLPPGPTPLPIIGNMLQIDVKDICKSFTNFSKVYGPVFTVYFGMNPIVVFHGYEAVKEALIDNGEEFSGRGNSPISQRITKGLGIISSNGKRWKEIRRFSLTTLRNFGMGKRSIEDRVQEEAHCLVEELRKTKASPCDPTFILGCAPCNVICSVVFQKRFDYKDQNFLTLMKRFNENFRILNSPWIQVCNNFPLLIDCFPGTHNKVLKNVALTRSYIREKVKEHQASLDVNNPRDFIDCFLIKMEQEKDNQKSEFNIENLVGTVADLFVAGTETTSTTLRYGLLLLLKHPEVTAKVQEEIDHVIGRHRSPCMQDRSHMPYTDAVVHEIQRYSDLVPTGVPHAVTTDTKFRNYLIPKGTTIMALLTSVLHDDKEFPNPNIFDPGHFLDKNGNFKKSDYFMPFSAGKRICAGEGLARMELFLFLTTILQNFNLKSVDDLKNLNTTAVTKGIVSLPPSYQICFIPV

Rattus norvegicus [38] = assay: Analgesic activity in […]-induced po dosed rat joint pain model assessed as inhibition of differential weight bearing measured 30 mins post dose; format: functional, organism-based
[39] = Half life in rat at 5 mg/kg, po; format: ADME, organism-based; details: in vivo
[40] = biological target: Mu-type opioid receptor (Homo sapiens) (UniProt P35372); assay: Inhibition of human mu opoid receptor at 10 uM
Mu-type opioid receptor (Homo sapiens), sequence (P35372 whole entry): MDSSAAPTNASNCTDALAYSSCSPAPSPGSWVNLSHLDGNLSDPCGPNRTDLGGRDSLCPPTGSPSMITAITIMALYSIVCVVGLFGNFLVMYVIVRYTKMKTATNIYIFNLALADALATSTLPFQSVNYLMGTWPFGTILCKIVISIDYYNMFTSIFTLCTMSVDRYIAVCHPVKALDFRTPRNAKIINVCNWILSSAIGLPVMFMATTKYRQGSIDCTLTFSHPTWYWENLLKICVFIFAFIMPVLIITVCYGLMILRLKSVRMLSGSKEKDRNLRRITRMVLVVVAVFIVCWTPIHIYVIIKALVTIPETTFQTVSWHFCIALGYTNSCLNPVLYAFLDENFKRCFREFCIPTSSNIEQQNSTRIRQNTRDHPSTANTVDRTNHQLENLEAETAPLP

Rattus norvegicus [41] = assay: as §1; format: ADME, organism-based; details: in vivo
Rattus norvegicus [42] = assay: as §2; format: ADME, organism-based; details: in vivo

Compound `Cc1ccc(C(=O)O)c(C)c1NC(=O)c1cc(-c2cccc(Cl)c2)cc2ccccc12` has a bioavailability [1] of 100%.
Compound `Cc1ccc(-c2cccc(CO)c2)cc1C(=O)Nc1c(C)ccc(C(=O)O)c1C` has an IC50 [2] of 59.5 nM, a clearance [3] of 15 mL/min/kg and a solubility at 20 h [4] of 783 µg/mL (≈ 2010 µM). The bioavailability [5] was 7% and the AUC [6] was 375 ng·h/mL.
With `O=C(O)Cc1ccccc1Nc1c(Cl)cccc1Cl` the inhibition (Rattus norvegicus [7]) was “Active” and the inhibition (Rattus norvegicus [8]) was “Active”.
Work on `Cc1ccc(-c2cccc(Cl)c2)nc1C(=O)Nc1c(C)ccc(C(=O)O)c1C` yielded an IC50 [2] of 637 nM and an IC50 [9] of 1.56 nM.
`Cc1ccc(C(=O)O)c(C)c1NC(=O)c1cc(-c2cccc(CO)c2)cc2ccccc12` showed a bioavailability [1] of 6%.
Work on `Cc1cc(C(=O)O)cc(C)c1NC(=O)c1nc(-c2cccc(CO)c2)ccc1C(F)(F)F` yielded an IC50 [2] of 121 nM, an IC50 [9] of 0.67 nM and a clearance [3] of 54 mL/min/kg. It also gave a solubility at 20 h [4] of 23 µg/mL (≈ 51.8 µM), a bioavailability [5] of 16% and an AUC [6] of 243 ng·h/mL.
`Cc1ccc(C(=O)O)c(C)c1NC(=O)c1nc(-c2cccc(CO)c2)ccc1C(F)(F)F` showed an IC50 [2] of 59 nM, an IC50 [9] of 1.94 nM and a clearance [3] of 7 mL/min/kg. For the same compound, the solubility at 20 h [4] was 29 µg/mL (≈ 65.3 µM), the bioavailability [5] was 13% and the AUC [6] was 1540 ng·h/mL.
For `Cc1ccc(-c2cccc(CO)c2)nc1C(=O)Nc1c(C)ccc(C(=O)O)c1C`, the IC50 [10] was > 25000 nM, the Ki [10] was > 17500 nM and the inhibition [11] was 9%. The IC50 (Cytochrome P450 2B6) was > 10000 nM, the inhibition at 10 µM [12] was -7% and the inhibition (Rattus norvegicus [13]) was -6%. The IC50 (Cytochrome P450 1A2) was > 10000 nM, the inhibition at 10 µM [14] was -10% and the IC50 [2] was 38.7 nM. The Cmax [15] was 3820 ng/mL, the inhibition (Rattus norvegicus [16]) was “Active” and the inhibition [17] was 11%. The IC50 (Cytochrome P450 3A4) was > 10000 nM, the IC50 (Cytochrome P450 2C19) was > 10000 nM and the inhibition at 10 µM [18] was -46%. The inhibition [19] was -3%, the IC50 (Cytochrome P450 2D6) was > 10000 nM and the AUC [20] was 10900 ng·h/mL. For the same compound, the inhibition [21] was 1%, the clearance [3] was 2.2 mL/min/kg and the solubility at 20 h [4] was 242 µg/mL (≈ 620 µM). The clearance [22] was 3.7 mL/min/kg, the inhibition (Rattus norvegicus [8]) was “Active” and the inhibition [23] was -3%. For the same compound, the Cmax [24] was 1640 ng/mL, the inhibition [25] was 0% and the inhibition [26] was -2%. The IC50 (Cytochrome P450 2C9) was > 10000 nM, the IC50 [27] was > 25000 nM and the Ki [27] was > 14000 nM. For the same compound, the “inhibition (INH)” value [28] was “Not Active”, the inhibition [29] was -7% and the Vd [30] was 0.16 L/kg. For the same compound, the inhibition [31] was -5%, the IC50 [32] was > 25000 nM and the Ki [32] was > 18900 nM. For the same compound, the inhibition [33] was -1%, the inhibition [34] was 5% and the bioavailability [35] was 48%. The Vd [36] was 0.97 L/kg, the half-life [37] was 1.1 h and the bioavailability [5] was 22%. For the same compound, the IC50 (Cytochrome P450 2C8) was > 10000 nM, the inhibition (Rattus norvegicus [38]) was “Dose-dependent effect” and the half-life [39] was 2.1 h. For the same compound, the AUC [6] was 8520 ng·h/mL and the inhibition [40] was -6%.
With `Cc1ccc(C(=O)O)c(C)c1NC(=O)c1cc(-c2cccc(CO)c2)ccc1F` the IC50 [2] was 72.4 nM, the IC50 [9] was 4.49 nM and the solubility at 20 h [4] was 709 µg/mL (≈ 1800 µM). It also gave an F (Rattus norvegicus [41]) of 11% and an AUC (Rattus norvegicus [42]) of 994 ng·h/mL.
Compound `Cc1ccc(-c2cccc(CO)c2)cc1C(=O)Nc1c(C)cc(C(=O)O)cc1C` has an IC50 [2] of 18.7 nM, an IC50 [9] of 0.28 nM and a clearance [3] of 71 mL/min/kg. For the same compound, the solubility at 20 h [4] was 31 µg/mL (≈ 79.6 µM), the bioavailability [5] was 13% and the AUC [6] was 88 ng·h/mL.
With `Cc1cc(C(=O)O)cc(C)c1NC(=O)c1cc(-c2cccc(CO)c2)ccc1F` the IC50 [2] was 47.8 nM, the IC50 [9] was 0.73 nM and the clearance [3] was 91 mL/min/kg. For the same compound, the solubility at 20 h [4] was 774 µg/mL (≈ 1970 µM), the bioavailability [5] was 12% and the AUC [6] was 105 ng·h/mL.
Compound `Cc1ccc(-c2cccc(CO)c2)nc1C(=O)Nc1c(C)cc(C(=O)O)cc1C` has an IC50 [2] of 56.3 nM, an IC50 [9] of 0.67 nM and a clearance [3] of 7 mL/min/kg. For the same compound, the solubility at 20 h [4] was 14 µg/mL (≈ 35.9 µM), the bioavailability [5] was 36% and the AUC [6] was 4330 ng·h/mL.
